Experimental findings from PMC11945486, “TAS1R2/TAS1R3 Single-Nucleotide Polymorphisms Affect Sweet Taste Receptor Activation by Sweeteners: The SWEET Project” (Nutrients, 2025) are described below.

The experiment has as its target T1, human TAS1R2-WT/TAS1R3-WT (Homo sapiens, UniProt Q7RTX0+Q8TE23).
T1 construct: expressed in transfected cells; host or cells: HEK293T-Gα16gust44
T1 sequence (Q8TE23 20-839): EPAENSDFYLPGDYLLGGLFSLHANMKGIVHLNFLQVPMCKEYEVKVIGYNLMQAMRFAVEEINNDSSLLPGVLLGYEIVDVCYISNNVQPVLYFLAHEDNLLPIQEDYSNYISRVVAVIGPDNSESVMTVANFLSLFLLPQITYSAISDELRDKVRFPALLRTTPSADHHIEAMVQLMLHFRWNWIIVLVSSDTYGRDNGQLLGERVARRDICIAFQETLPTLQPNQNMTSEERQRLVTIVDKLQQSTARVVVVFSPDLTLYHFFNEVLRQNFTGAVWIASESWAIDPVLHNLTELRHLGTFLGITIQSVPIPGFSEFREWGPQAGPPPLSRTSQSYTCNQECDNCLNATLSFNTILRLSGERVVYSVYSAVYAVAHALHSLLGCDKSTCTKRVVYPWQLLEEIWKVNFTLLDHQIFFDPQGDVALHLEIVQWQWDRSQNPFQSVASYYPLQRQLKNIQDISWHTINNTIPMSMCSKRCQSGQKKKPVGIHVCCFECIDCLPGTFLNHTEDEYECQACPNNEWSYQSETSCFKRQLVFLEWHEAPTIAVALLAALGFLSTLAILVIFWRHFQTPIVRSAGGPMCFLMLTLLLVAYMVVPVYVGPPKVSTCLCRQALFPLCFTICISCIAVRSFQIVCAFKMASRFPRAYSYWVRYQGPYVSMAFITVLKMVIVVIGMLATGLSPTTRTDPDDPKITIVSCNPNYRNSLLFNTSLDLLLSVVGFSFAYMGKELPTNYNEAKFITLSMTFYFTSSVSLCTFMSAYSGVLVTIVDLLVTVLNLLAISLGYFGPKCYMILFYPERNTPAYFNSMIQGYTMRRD
T1 sequence (Q7RTX0 21-852): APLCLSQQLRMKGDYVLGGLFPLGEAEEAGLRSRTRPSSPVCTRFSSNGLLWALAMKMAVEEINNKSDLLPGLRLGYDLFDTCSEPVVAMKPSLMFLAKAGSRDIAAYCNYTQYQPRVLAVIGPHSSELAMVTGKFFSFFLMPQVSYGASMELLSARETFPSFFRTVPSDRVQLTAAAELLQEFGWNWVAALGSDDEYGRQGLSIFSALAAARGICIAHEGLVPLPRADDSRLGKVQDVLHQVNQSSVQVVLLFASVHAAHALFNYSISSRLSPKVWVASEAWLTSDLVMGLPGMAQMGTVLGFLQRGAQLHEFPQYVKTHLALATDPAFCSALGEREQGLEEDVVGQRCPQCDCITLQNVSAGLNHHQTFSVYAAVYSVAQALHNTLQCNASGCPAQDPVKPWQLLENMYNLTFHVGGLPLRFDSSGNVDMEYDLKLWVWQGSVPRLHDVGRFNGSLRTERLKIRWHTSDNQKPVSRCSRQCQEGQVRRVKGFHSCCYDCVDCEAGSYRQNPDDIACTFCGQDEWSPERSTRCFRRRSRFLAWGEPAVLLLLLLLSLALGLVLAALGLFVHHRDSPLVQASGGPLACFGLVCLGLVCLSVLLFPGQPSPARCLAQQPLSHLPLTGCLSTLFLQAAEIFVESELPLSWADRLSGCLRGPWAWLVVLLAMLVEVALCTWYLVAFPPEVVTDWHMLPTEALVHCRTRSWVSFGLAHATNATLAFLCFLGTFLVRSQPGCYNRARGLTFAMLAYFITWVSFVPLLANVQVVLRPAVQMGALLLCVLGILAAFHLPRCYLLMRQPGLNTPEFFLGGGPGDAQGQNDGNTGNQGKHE
Briefly: Calcium mobilisation assay, HEK293T-Gα16gust44 cells, human sweet taste receptor WT. Type of experiment: cell-based. The following applies: for Max ΔF/F0: maximal signal amplitude. An excerpt: The coding sequences for TAS1R2 and TAS1R3 were commercially synthesised, and the human codon was optimised for expression in human cells. The coding sequences of human TAS1R2 and TAS1R3 were subcloned and inserted into the mammalian expression vectors pcDNA6/myc-HisA and pcDNA4/myc-HisA (Invitrogen; Thermo Fisher Scientific; Illkirch, France) between the EcoRI and NotI restriction sites, generating the plasmids pcDNA6-TAS1R2 and pcDNA4-TAS1R3, respectively. To increase protein expression in mammalian cells, an upstream start codon was used, which was a sequence called MAX, corresponding to the QBI SP163 element also described in pcDNA4-HisMax (Invitrogen; Thermo Fisher Scientific; Illkirch, France). To measure the expression level of the receptor by immunohistochemistry, we used the FLAG sequence ([…]) in the C-terminal position, which encodes the FLAG tag epitope. SNP variants of TAS1R2 and TAS1R3 were constructed based on […], respectively, using site-directed mutagenesis (Genewiz; Leipzig, Germany).
The HEK293T cells were kindly provided by Jay P. Slack (Givaudan Flavors Corporation; Cincinnati, OH, USA). HEK293T cells stably transfected with Gα16gust44 [43, 67] were seeded in poly-D-lysine-coated clear-bottom black 96-well plates (0.35 × 10^5 cells/well) in high-glucose DMEM supplemented with 2 mM GlutaMAX, 10% dialysed foetal bovine serum with penicillin/streptomycin and G418 (400 μg/mL) at 37 °C and 6.3% CO2 in a humidified atmosphere as previously reported. […] As a negative control, HEK293T cells were mock-transfected with the empty expression vector. After a further 24 h of incubation, the HEK293T cells were washed with C1 buffer (130 mM NaCl, 5 mM KCl, 10 mM HEPES pH 7.4 and 2 mM CaCl2). The 96-well plates containing the cells were then stimulated with sweet-tasting compounds. […] Different concentration ranges were tested depending on the sweet compound injected. The Ca^2+ changes were expressed as fractional changes in fluorescent light intensity: ΔF/F = (F − F0)/F0, where F was the fluorescent light intensity at each point, and F0 was the value of emitted fluorescent light prior to stimulus application. To calculate dose–response relationships, the changes in fluorescence upon stimulus application were averaged, mock-subtracted and baseline-corrected. The dose–response data obtained were adjusted using a 4-parameter logistic equation. The half-maximal effective concentrations (EC50 values) and maximal signal amplitudes were calculated using SigmaPlot software (version 15.0) (Systat Software; San Jose, CA, USA).
For in vitro calcium mobilisation assay performed on hTAS1R2-SNPs, hTAS1R3-SNPs and mTAS1R3-I60T, 6 to 7 concentrations were tested for each sweet compound, plus buffer alone. All concentration–receptor combinations were measured in duplicate, and each experiment was repeated at least 4 times (8 wells/concentration). Results were expressed for each concentration as ΔF/F mean ± SEM and represented as dose–response curves.

Setting [1] is: TAS1R2-WT + TAS1R3-WT, read-out: EC50.
[2] abbreviates: TAS1R2-WT/TAS1R3-WT, read-out: EC50.

Where two headings read alike, the source gives them in different places. No end group written: not given here.

In the case of `OC[C@H]1O[C@H](O[C@]2(CCl)O[C@H](CCl)[C@@H](O)[C@@H]2O)[C@H](O)[C@@H](O)[C@H]1Cl` [Sucralose], the “R1 = Variant EC50/WT EC50” value was determined as 1.0 (TAS1R2-WT + TAS1R3-WT) and 1.0 (TAS1R2-WT/TAS1R3-WT). The “Max ΔF/F0” value runs as follows: (TAS1R2-WT + TAS1R3-WT) 0.59 ± 0.03; (TAS1R2-WT/TAS1R3-WT) 0.65 ± 0.01. The concentration giving a half-maximal response (EC50) reads like this: under setting [1], 90 ± 11 µM; under setting [2], 109 ± 4 µM.

In the case of `C[C@H](CC[C@@H](O[C@@H]1O[C@H](CO[C@@H]2O[C@H](CO)[C@@H](O)[C@H](O)[C@H]2O)[C@@H](O)[C@H](O)[C@H]1O[C@@H]1O[C@H](CO)[C@@H](O)[C@H](O)[C@H]1O)C(C)(C)O)[C@H]1CC[C@@]2(C)[C@@H]3CC=C4[C@@H](CC[C@H](O[C@@H]5O[C@H](CO[C@@H]6O[C@H](CO)[C@@H](O)[C@H](O)[C@H]6O)[C@@H](O)[C@H](O)[C@H]5O)C4(C)C)[C@]3(C)[C@H](O)C[C@]12C` [Mogroside V, mogroside V], the “R1 = Variant EC50/WT EC50” value by setting is: (TAS1R2-WT + TAS1R3-WT) 1.0; (TAS1R2-WT/TAS1R3-WT) 1.0. The “Max ΔF/F0” value is recorded as 1.28 ± 0.03 (TAS1R2-WT + TAS1R3-WT) and 0.93 ± 0.01 (TAS1R2-WT/TAS1R3-WT). In addition, the EC50 under setting [1] is 17.3 ± 1.2 µM and the EC50 under setting [2] came to 31.3 ± 0.8 µM.

With `COC(=O)[C@H](Cc1ccccc1)NC(=O)[C@H](CC(=O)O)NCCC(C)(C)C` [Neotame], the “R1 = Variant EC50/WT EC50” value is, setting by setting: (TAS1R2-WT + TAS1R3-WT) 1.0; (TAS1R2-WT/TAS1R3-WT) 1.0. Further, the “Max ΔF/F0” value is listed as 0.56 ± 0.03 (TAS1R2-WT + TAS1R3-WT) and 0.65 ± 0.02 (TAS1R2-WT/TAS1R3-WT). For the same molecule, the EC50 is, setting by setting: under setting [1], 0.84 ± 0.13 µM; under setting [2], 1.22 ± 0.11 µM.

On to “brazzein (QDKCKKVYENYPVSKCQLANQCNYDCKLDKHARSGECFYDEKRNLQCICDYCEY; ends and bridges not checked; cysteine pairing not given here; UniProt P56552 1-54, looked up) [sweet-tasting protein obtained by recombinant production using the yeast Pichia pastoris]”, for which, under “TAS1R2-WT + TAS1R3-WT”, the “R1 = Variant EC50/WT EC50” value is on record as 1.0 and the “Max ΔF/F0” value was 1.17 ± 0.04. Also, under “TAS1R2-WT/TAS1R3-WT”, the “R1 = Variant EC50/WT EC50” value was 1.0 and the “Max ΔF/F0” value stood at 0.88 ± 0.03. Also, the half-maximal effective concentration (EC50) (TAS1R2-WT/TAS1R3-WT, brazzein) came out at 112.8 ± 11.2 µg/mL.

As for `C=C(C)[C@@H]1CC=C(/C=N/O)CC1` [Perillartine, perillartine], the “R1 = Variant EC50/WT EC50” value is recorded as 1.0 (TAS1R2-WT + TAS1R3-WT) and 1.0 (TAS1R2-WT/TAS1R3-WT). Also, the “Max ΔF/F0” value reads like this: (TAS1R2-WT + TAS1R3-WT) 1.47 ± 0.07; (TAS1R2-WT/TAS1R3-WT) 1.51 ± 0.22. Besides, the EC50 is 17.5 ± 2.2 µM under setting [1] and 13.8 ± 6.3 µM under setting [2].

Turning to `CC1=CC(=O)NS(=O)(=O)O1` [Acesulfame K, acesulfame K], the “R1 = Variant EC50/WT EC50” value runs as follows: (TAS1R2-WT + TAS1R3-WT) 1.0; (TAS1R2-WT/TAS1R3-WT) 1.0. The “Max ΔF/F0” value turned out to be 0.31 ± 0.01 (TAS1R2-WT + TAS1R3-WT) and 0.28 ± 0.01 (TAS1R2-WT/TAS1R3-WT). Further, the EC50 by setting is: under setting [1], 705 ± 7 µM; under setting [2], 622 ± 45 µM.

With `C=C1C[C@@]23CC[C@H]4[C@@](C)(CCC[C@@]4(C)C(=O)O[C@@H]4O[C@H](CO)[C@@H](O)[C@H](O[C@@H]5O[C@H](CO)[C@@H](O)[C@H](O)[C@H]5O)[C@H]4O[C@@H]4O[C@H](CO)[C@@H](O)[C@H](O)[C@H]4O)[C@@H]2CC[C@]1(O[C@@H]1O[C@H](CO)[C@@H](O)[C@H](O[C@@H]2O[C@H](CO)[C@@H](O)[C@H](O)[C@H]2O)[C@H]1O[C@@H]1O[C@H](CO)[C@@H](O)[C@H](O)[C@H]1O)C3` [Rebaudioside M, rebaudioside M], the “R1 = Variant EC50/WT EC50” value runs as follows: (TAS1R2-WT + TAS1R3-WT) 1.0; (TAS1R2-WT/TAS1R3-WT) 1.0. The “Max ΔF/F0” value runs as follows: (TAS1R2-WT + TAS1R3-WT) 1.12 ± 0.01; (TAS1R2-WT/TAS1R3-WT) 0.69 ± 0.02. Further, the EC50 was 16.9 ± 0.5 µM under setting [1] and 40.4 ± 2.9 µM under setting [2].

For `O=S(=O)(O)NC1CCCCC1` [Cyclamate, cyclamate], the EC50 under setting [1] was 1890 ± 46 µM and the half-maximal effective concentration (EC50) under setting [2] came out at 1590 ± 28 µM.

`COc1ccc(CCC(=O)c2c(O)cc(O[C@@H]3O[C@H](CO)[C@@H](O)[C@H](O)[C@H]3O[C@@H]3O[C@@H](C)[C@H](O)[C@@H](O)[C@H]3O)cc2O)cc1O` [NHDC, neohesperidin dihydrochalcone]: the “R1 = Variant EC50/WT EC50” value amounted to 1.0 (TAS1R2-WT + TAS1R3-WT) and 1.0 (TAS1R2-WT/TAS1R3-WT). For the same molecule, the “Max ΔF/F0” value runs as follows: (TAS1R2-WT + TAS1R3-WT) 0.71 ± 0.02; (TAS1R2-WT/TAS1R3-WT) 1.13 ± 0.01. Besides, the EC50 reads like this: under setting [1], 76.7 ± 4.4 µM; under setting [2], 50.3 ± 11 µM.

For thaumatin, for the setting “TAS1R2-WT + TAS1R3-WT”, the “R1 = Variant EC50/WT EC50” value is given as 1.0 and the “Max ΔF/F0” value is given as 0.72 ± 0.01. For the same molecule, for the setting “TAS1R2-WT/TAS1R3-WT”, the “R1 = Variant EC50/WT EC50” value amounted to 1.0 and the “Max ΔF/F0” value is recorded as 0.57 ± 0.02.

B1: thaumatin (protein)
chain: ATFEIVNRCSYTVWAAASKGDAALDAGGRQLNSGESWTINVEPGTKGGKIWARTDCYFDDSGSGICKTGDCGGLLRCKRFGRPPTTLAEFSLNQYGKDYIDISNIKGFNVPMDFSPTTRGCRGVRCAADIVGQCPAKLKAPGGGCNDACTVFQTSEYCCTTGKCGPTEYSRFFKRLCPDAFSYVLDKPTTVTCPGSSNYRVTFCPTA
modifications: Eight disulfides
notes: sweet-tasting plant protein, E957
B1: the EC50 under setting [1] was found to be 7.6 ± 0.3 µM and the EC50 under setting [2] worked out at 10.4 ± 0.6 µM.
